Results: patent US20240158446A1, “CYCLIC COMPOUND HAVING SELECTIVE INHIBITORY ACTION ON KRAS OVER HRAS AND NRAS” (CHUGAI SEIYAKU KABUSHIKI KAISHA, priority 2021, published 2024)
Where two headings read alike, the source gives them in different places. *1 amine or outer side, *2 acyl side, *3 side chain or, on linkers, in order; H or OH if unused. Where a SMILES comes first, the peptide text is derived from it. Bridges are numbered along the chain shown (N, C = ends). [ ]: non-standard residue; d: D form. The star is where a group is joined. ξ: configuration not given here. hPhe(3-Cl-4-CF3) = N[C@@H](CCc1ccc(C(F)(F)F)c(Cl)c1)C(=O)O; NPrPhe(4-CF3) = CCCN[C@@H](Cc1ccc(C(F)(F)F)cc1)C(=O)O; X26 = C=CCN([C@@H](Cc1ccccc1)C(=O)[*:2])[*:1]; NMeGly(cPent) = CN[C@H](C(=O)O)C1CCCC1; NMeNle(5-ene) = C=CCC[C@H](NC)C(=O)O; dIle(3ξ) = CCC(C)[C@@H](N)C(=O)O; NMeD = CN[C@@H](CC(=O)O)C(=O)O; NMeL = CN[C@@H](CC(C)C)C(=O)O; hPip = O=C(O)[C@@H]1CCCCCN1; Morpholide = C1CN(*)CCO1; Ac5c = NC1(C(=O)O)CCCC1; Aze = O=C(O)[C@@H]1CCN1; Ac4c = NC1(C(=O)O)CCC1; NEtG = CCNCC(=O)O; Sar = CNCC(=O)O

Columns and labels:
[1] = target: GDP-bound HRAS wild-type protein (Homo sapiens, UniProt P01112); assay: Binding to HRAS by surface plasmon resonance (SPR), Single Cycle Kinetics; conditions: for HRAS/KRAS (ratio of KD value for HRAS to KD value for KRAS) / HRAS/KRAS (ratio of KD value with respect to HRAS to KD value with respect to KRAS): SPR, GDP-bound HRAS wild-type protein vs GDP-bound KRAS wild-type protein; for HRAS/KRAS (ratio of KD value with respect to GDP-bound HRAS wild-type protein to KD value with respect to KRAS): SPR KD ratio HRAS/KRAS, class symbols
[2] = target: GDP-bound NRAS wild-type protein (Homo sapiens, UniProt P01111); assay: Binding to NRAS by surface plasmon resonance (SPR), Single Cycle Kinetics; conditions: for NRAS/KRAS (ratio of KD value for NRAS to KD value for KRAS) / NRAS/KRAS (ratio of KD value with respect to NRAS to KD value with respect to KRAS): SPR, GDP-bound NRAS wild-type protein vs GDP-bound KRAS wild-type protein; for NRAS/KRAS (ratio of KD value with respect to GDP-bound NRAS wild-type protein to KD value with respect to KRAS): SPR KD ratio NRAS/KRAS, class symbols
[3] = target: GDP-bound KRAS wild-type protein (Homo sapiens, UniProt P01116); assay: Binding to KRAS by surface plasmon resonance (SPR), Single Cycle Kinetics; conditions: GDP-bound KRAS wild-type protein, read-out: KRAS KD
[4] = SPR Single Cycle Kinetics, 1:1 binding model
[5] = SPR, Single Cycle Kinetics, 1:1 binding model

Chain of GDP-bound KRAS wild-type protein (P01116 whole entry): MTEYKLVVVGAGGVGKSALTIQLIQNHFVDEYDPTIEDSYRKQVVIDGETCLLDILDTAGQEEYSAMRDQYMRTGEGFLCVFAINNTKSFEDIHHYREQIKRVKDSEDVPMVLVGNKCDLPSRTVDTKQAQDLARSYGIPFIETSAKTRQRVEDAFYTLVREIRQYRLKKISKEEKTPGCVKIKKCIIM
Chain of GDP-bound NRAS wild-type protein (P01111 whole entry): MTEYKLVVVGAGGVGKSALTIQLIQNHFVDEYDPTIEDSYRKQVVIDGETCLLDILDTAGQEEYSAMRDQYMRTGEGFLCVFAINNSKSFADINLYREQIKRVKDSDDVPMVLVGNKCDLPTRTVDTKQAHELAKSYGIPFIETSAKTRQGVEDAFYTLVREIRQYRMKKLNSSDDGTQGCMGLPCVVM
Chain of GDP-bound HRAS wild-type protein (P01112 whole entry): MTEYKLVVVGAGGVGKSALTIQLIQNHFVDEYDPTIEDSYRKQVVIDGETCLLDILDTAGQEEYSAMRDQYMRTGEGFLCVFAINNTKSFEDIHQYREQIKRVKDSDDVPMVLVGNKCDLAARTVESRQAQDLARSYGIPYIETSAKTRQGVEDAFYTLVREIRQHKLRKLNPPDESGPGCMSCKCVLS

Compound | Kd [3, 4] [nM] | HRAS/KRAS (ratio of KD value with respect to HRAS to KD value with respect to KRAS) [1] | NRAS/KRAS (ratio of KD value with respect to NRAS to KD value with respect to KRAS) [2] | further results
CCCN1C(=O)CN(C)C(=O)[C@@H]2CCCN2C(=O)[C@H]([C@@H](C)CC)NC(=O)[C@H](CC(C)C)N(C)C(=O)C[C@@H](C(=O)N2CCOCC2)N(C)C(=O)[C@H](C2CCCC2)N(C)C(=O)C2(CCCC2)NC(=O)[C@@H]2CCCN2C(=O)[C@H](CCc2ccc(C(F)(F)F)c(Cl)c2)NC(=O)CN(C)C(=O)[C@@H]1Cc1ccc(C(F)(F)F)cc1 [PP0165] ([NMeL]IP[Sar][NPrPhe(4-CF3)][Sar][hPhe(3-Cl-4-CF3)]P[Ac5c][NMeGly(cPent)][NMeD]-Morpholide; lactam N-11) | 2.9 | – | – | HRAS/KRAS (ratio of KD value for HRAS to KD value for KRAS) [1]: B (a compound having 3 or more and less than 10 is denoted as B); NRAS/KRAS (ratio of KD value for NRAS to KD value for KRAS) [2]: B (a compound having 3 or more and less than 10 is denoted as B)
CC[C@H](C)[C@@H]1NC(=O)[C@H](CC)N(C)C(=O)C[C@@H](C(=O)N(C)C)N(C)C(=O)[C@H](C2CCCC2)N(C)C(=O)C2(CCC2)NC(=O)[C@@H]2C[C@H](N3CCC(F)(F)CC3)CN2C(=O)[C@H](CCc2cc(F)c(C(F)(F)F)c(F)c2)NC(=O)CN(C)C(=O)[C@H](Cc2ccc(C(F)(F)F)cc2)N2CCCC[C@@H](C2=O)N(C)C(=O)CN(C)C1=O [PP0732] | 0.039 | B (a compound having 3 or more and less than 10 is denoted as B) | C (A compound having a KD ratio of 0.1 or more and less than 3 is denoted as C) | –
CC[C@H](C)[C@@H]1NC(=O)[C@H](CC(C)C)N(C)C(=O)C[C@@H](C(=O)N2CCOCC2)N(C)C(=O)[C@H](C2CCCC2)N(C)C(=O)C2(CCCC2)NC(=O)[C@@H]2C[C@H](OC)CN2C(=O)[C@H](CCc2cc(F)c(C(F)(F)F)c(F)c2)NC(=O)CN(C)C(=O)[C@H](Cc2ccc(C(F)(F)F)cc2)N2CCCCC[C@@H](C2=O)N(C)C(=O)CN(C)C1=O [PP0495] | 5.1 | B (a compound having 3 or more and less than 10 is denoted as B) | A (a compound having 10 or more and less than 20 is denoted as A) | –
CCO[C@@H]1C[C@H]2C(=O)NC3(CCC3)C(=O)N(C)[C@@H](C3CCCC3)C(=O)N(C)[C@H](C(=O)N(C)C)CC(=O)N(C)[C@@H](CCC(=O)N(C)C)C(=O)N[C@@H]([C@@H](C)CC)C(=O)N(C)CC(=O)N(C)[C@H]3C/C=C\CCN(C3=O)[C@@H](Cc3ccc(C(F)(F)F)cc3)C(=O)N(C)CC(=O)N[C@@H](CCc3cc(F)c(C(F)(F)F)c(F)c3)C(=O)N2C1 [PP1122] | – | – | – | HRAS/KRAS (ratio of KD value for HRAS to KD value for KRAS) [1]: B (a compound having 3 or more and less than 10 is denoted as B); NRAS/KRAS (ratio of KD value for NRAS to KD value for KRAS) [2]: A (a compound having 10 or more and less than 20 is denoted as A); Kd ([3]; SPR, Single Cycle Kinetics): 0.047 nM
CC[C@H](C)[C@@H]1NC(=O)[C@H](CC(C)C)N(C)C(=O)C[C@@H](C(=O)N2CCOCC2)N(C)C(=O)[C@H](C2CCCC2)N(C)C(=O)C2(CCCC2)NC(=O)[C@@H]2CC(=O)CN2C(=O)[C@H](CCc2cc(F)c(C(F)(F)F)c(F)c2)NC(=O)CN(C)C(=O)[C@H](Cc2ccc(C(F)(F)F)cc2)N2CCCCC[C@@H](C2=O)N(C)C(=O)CN(C)C1=O [PP0493] | 2 | B (a compound having 3 or more and less than 10 is denoted as B) | B (a compound having 3 or more and less than 10 is denoted as B) | –
CCCN(C)C(=O)[C@@H]1CC(=O)N(C)[C@@H](CC(C)C)C(=O)N[C@@H]([C@@H](C)CC)C(=O)N(C)CC(=O)N(C)[C@H]2C/C=C\CCN(C2=O)[C@@H](Cc2ccc(C(F)(F)F)cc2)C(=O)N(C)CC(=O)N[C@@H](CCc2cc(F)c(C(F)(F)F)c(F)c2)C(=O)N2C[C@H](OCC)C[C@H]2C(=O)NC2(CCC2)C(=O)N(C)[C@@H](C2CCCC2)C(=O)N1C [PP1387, (2S,8S,12R,14S,20S,23S,27S,30S,36S,38Z)-20-cyclopentyl-8-[2-[3,5-difluoro-4-(trifluoromethyl)phenyl]ethyl]-12-ethoxy-27-isobutyl-N,4,19,22,26,32,35-heptamethyl-30-[(1S)-1-methylpropyl]-3,6,9,15,18,21,25,28,31,34,42-undecaoxo-N-propyl-2-[[4-(trifluoromethyl)phenyl]methyl]spiro[1,4,7,10,16,19,22,26,29,32,35-undecazatricyclo[34.5.1.0^10,14]dotetracont-38-ene-17,1′-cyclobutane]-23-carboxamide] | – | – | – | HRAS/KRAS (ratio of KD value for HRAS to KD value for KRAS) ([1]; KD ratio class): B (a compound having 3 or more and less than 10 is denoted as B); NRAS/KRAS (ratio of KD value for NRAS to KD value for KRAS) ([2]; KD ratio class): A (a compound having 10 or more and less than 20 is denoted as A); Kd [3, 5]: 0.098 nM
CCCN1C(=O)CN(C)C(=O)[C@@H]2CCN2C(=O)[C@H]([C@@H](C)CC)NC(=O)[C@H](CC(C)C)N(C)C(=O)C[C@@H](C(=O)N(C)C)N(C)C(=O)[C@H](C2CCCC2)N(C)C(=O)C2(CCC2)NC(=O)[C@@H]2CCCN2C(=O)[C@H](CCc2ccc(C(F)(F)F)c(Cl)c2)NC(=O)CN(C)C(=O)[C@@H]1Cc1ccc(C(F)(F)F)cc1 [PP0430] ([NMeL]I[Aze][Sar][NPrPhe(4-CF3)][Sar][hPhe(3-Cl-4-CF3)]P[Ac4c][NMeGly(cPent)][NMeD]-NMe2; lactam N-11) | 0.26 | B (a compound having 3 or more and less than 10 is denoted as B) | B (a compound having 3 or more and less than 10 is denoted as B) | –
CCC[C@H]1C(=O)N[C@@H]([C@@H](C)CC)C(=O)N(C)CC(=O)N(C)[C@H]2C/C=C\CCN(C2=O)[C@@H](Cc2ccc(C)cc2)C(=O)N(C)CC(=O)N[C@@H](CCc2ccc3sc(F)c(C)c3c2)C(=O)N2C[C@H](OCC)C[C@H]2C(=O)NC2(CC(C)(C)C2)C(=O)N(C)[C@@H](C2CCCC2)C(=O)N(C)[C@H](C(=O)N(C)C)CC(=O)N1C [PP2949] | 0.059 | – | – | HRAS/KRAS (ratio of KD value with respect to GDP-bound HRAS wild-type protein to KD value with respect to KRAS) [1]: A (a compound having 10 or more and less than 20 is denoted as A); NRAS/KRAS (ratio of KD value with respect to GDP-bound NRAS wild-type protein to KD value with respect to KRAS) [2]: A (a compound having 10 or more and less than 20 is denoted as A)
CCCN1C(=O)CN(C)C(=O)CN(CC)C(=O)[C@H]([C@@H](C)CC)NC(=O)[C@@H]2CCCCCN2C(=O)C[C@@H](C(=O)N2CCOCC2)N(C)C(=O)[C@H](C2CCCC2)N(C)C(=O)C2(CCCC2)NC(=O)[C@@H]2CCCN2C(=O)[C@H](CCc2ccc(C(F)(F)F)c(Cl)c2)NC(=O)CN(C)C(=O)[C@@H]1Cc1ccc(C(F)(F)F)cc1 [PP0289] ([hPip]I[NEtG][Sar][NPrPhe(4-CF3)][Sar][hPhe(3-Cl-4-CF3)]P[Ac5c][NMeGly(cPent)][NMeD]-Morpholide; lactam N-11) | 2.2 | – | – | HRAS/KRAS (ratio of KD value for HRAS to KD value for KRAS) [1]: B (a compound having 3 or more and less than 10 is denoted as B); NRAS/KRAS (ratio of KD value for NRAS to KD value for KRAS) [2]: B (a compound having 3 or more and less than 10 is denoted as B)
CCO[C@@H]1C[C@H]2C(=O)NC3(CC(C)(C)C3)C(=O)N(C)[C@@H](C(CC)CC)C(=O)N(C)[C@H](C(=O)N3CCCC3)CC(=O)N(C)[C@H]3CCC/C=C/c4ccc(cc4)C[C@@H](C(=O)N(C)CC(=O)N[C@@H](CCc4cc(F)c(C(F)(F)F)c(F)c4)C(=O)N2C1)N1CC/C=C\C[C@@H](C1=O)N(C)C(=O)CN(C)C(=O)[C@H]([C@@H](C)CC)NC3=O [PP2576] | 0.14 | – | – | HRAS/KRAS (ratio of KD value with respect to GDP-bound HRAS wild-type protein to KD value with respect to KRAS) [1]: A (a compound having 10 or more and less than 20 is denoted as A); NRAS/KRAS (ratio of KD value with respect to GDP-bound NRAS wild-type protein to KD value with respect to KRAS) [2]: A (a compound having 10 or more and less than 20 is denoted as A)
C=CCC[C@H]1C(=O)N(CC=C)[C@@H](Cc2ccccc2)C(=O)N(C)CC(=O)N[C@@H](CCc2ccc(C(F)(F)F)c(Cl)c2)C(=O)N2CCC[C@H]2C(=O)NC2(CCCC2)C(=O)N(C)[C@@H](C2CCCC2)C(=O)N(C)[C@H](C(=O)N2CCOCC2)CC(=O)N(C)[C@@H](CC(C)C)C(=O)N[C@H](C(C)CC)C(=O)N(C)CC(=O)N1C (stereo partly drawn) [PP0599] ([NMeL][dIle(3ξ)][Sar][NMeNle(5-ene)][X26][Sar][hPhe(3-Cl-4-CF3)]P[Ac5c][NMeGly(cPent)][NMeD]-Morpholide; lactam N-11) | 180 | B (a compound having 3 or more and less than 10 is denoted as B) | C (A compound having a KD ratio of 0.1 or more and less than 3 is denoted as C) | –
CC[C@H](C)[C@@H]1NC(=O)[C@H](CC2CCCC2)N(C)C(=O)C[C@@H](C(=O)N(C)C)N(C)C(=O)[C@H](C2CCCC2)N(C)C(=O)C2(CCC2)NC(=O)[C@@H]2C[C@@H](C(F)(F)F)CN2C(=O)[C@H](CCc2cc(F)c(C(F)(F)F)c(F)c2)NC(=O)CN(C)C(=O)[C@H](Cc2ccc(C(F)(F)F)cc2)N2CC/C=C\C[C@@H](C2=O)N(C)C(=O)CN(C)C1=O [PP1505] | – | – | – | HRAS/KRAS (ratio of KD value for HRAS to KD value for KRAS) ([1]; KD ratio class): A (a compound having 10 or more and less than 20 is denoted as A); NRAS/KRAS (ratio of KD value for NRAS to KD value for KRAS) ([2]; KD ratio class): A (a compound having 10 or more and less than 20 is denoted as A); Kd [3, 5]: 0.092 nM
